Patent US5399587A, “Biologically active compounds” (priority 1993, dated 1995)
Values joined by “and” are separate entries in the source; they are usually repeats but may differ in a detail not shown here. Equal entries are not always repeated.

Key:
[1] = target: large-conductance calcium-activated potassium (maxi-K) channels (Bos taurus, UniProt Q28204); experiment: Patch clamp recordings of maxi-K channel currents in excised inside-out membrane patches from cultured bovine aortic smooth muscle cells; type: biochemical; details: 10 μM
Procedure: Pipettes were typically filled with solutions containing (mM): 150 KCl, 10 Hepes (4-(2-hydroxyethyl)-1-piperazineethanesulfonic acid), 1 Mg, 0.01 Ca, and adjusted to pH 7.20 with 3.7 mM KOH. After forming a high resistance (>10^9 ohms) seal between the sarcolemmal membrane and the pipette, the pipette was withdrawn from the cell forming an excised inside-out membrane patch. […] An Axopatch 1C amplifier (Axon Instruments, Foster City, Calif.) with a CV-4 headstage was used to control the voltage and to measure the currents flowing across the membrane patch. The input to the headstage was connected to the pipette solution with a Ag/AgCl wire, and the amplifier ground was connected to the bath solution with a Ag/AgCl wire covered with a robe filled with agar dissolved in 0.2M KCl. Maxi-K channels were identified by their large single channel conductance (~250 pS) and sensitivity of channel open probability to membrane potential and intracellular calcium concentration.
Data was stored on a RACAL STORE 4DS FM tape recorder (Racal Recorders, Vienna, Va.) or on digital video tape using a video casette recorder after digitizing the signal with VR-10 (Instrutech Corp., Belmont N.Y.) PCM video encoder. The signal was also recorded on chart paper with a GOULD 2400S chart recorder (Gould Inc., Cleveland Ohio). For quantitative analysis, the data was played into a DEC 11-73 (Digital Equipment Corp., Maynard, Mass.) after digitization with a DT2782-8D1A analogue to digital converter (Data Translation Inc., Marlboro, Mass.), or played into a MAC IIx or QUADRA 700 computer (Apple Computers) after digitization with an ITC-16 interface (Instrutech Corp., Belmont, N.Y.).

[2] = test system: maxi-K channels; experiment: Maxi-K channel recordings in planar lipid bilayers with plasma membrane vesicles from bovine aortic smooth muscle; type: biochemical; details: 10 μM, lipid bilayer
Procedure: Planar lipid bilayers were formed from a solution of 1-palmitoyl-2-oleoylphosphatidylethanolamine (POPE) and 1-palmitoyloleoylphosphatidylcholine (POPC) in a 7/3 molar ratio dissolved in decane (50 mg/mL). This lipid solution was painted across a small hole (250 micron) separating two aqueous compartments and readily formed bilayers with capacitances of 200-250 pF. The solution on the side that the membranes were added (cis) contained (mM): 150 KCl, 10 Hepes, 0.01 Ca, 3.7 KOH, pH 7.20. The solution on the other side (trans) contained (mM): 25 KCl, 10 HEPES, 0.01 Ca, 3.7 KOH, pH 7.20. Plasma membrane vesicles purified from bovine aortic smooth muscle (Slaughter et al. 1989, Biochemistry 28, 3995-4002) were added to the cis side until channel incorporation occurred. After channel incorporation, the concentration of KCl on the trans side was increased to 150 mM to prevent further channel incorporation. The orientation of maxi-K channels after insertion into the bilayer was determined from the calcium and voltage sensitivity of the channel. […]
Data was stored on a RACAL STORE 4DS FM tape recorder (Racal Recorders, Vienna, Va.) or on digital video tape using a video casette recorder after digitizing the signal with VR-10 (Instrutech Corp., Belmont N.Y.) PCM video encoder. The signal was also recorded on chart paper with a GOULD 2400S chart recorder (Gould Inc., Cleveland Ohio). […]

[3] = target: T1, bovine aortic sarcolemma membrane vesicles ([^125 I]ChTX binding) (Bos taurus, UniProt Q28204); experiment: [^125 I]ChTX (Charybdotoxin) binding to bovine aortic sarcolemma membrane vesicles
T1 construct: bovine aortic sarcolemma membrane vesicles; from tissue; host or cells: bovine aorta (smooth muscle) sarcolemma membrane vesicles
Procedure: The interaction of [^125 I]ChTX (Charybdotoxin) with bovine aortic sarcolemma membrane vesicles was determined under conditions as described in Vazquez et al., 1989, J. Biol. Chem. 264, 20902-20909. Briefly, sarcolemma membrane vesicles were incubated in 12×75 polystyrene robes with ca. 25 pM [^125 I]ChTX (2200 Ci/mmol), in the absence or presence of test compound, in a media consisting of 20 mM NaCl, 20 mM Tris-HCl pH 7.4, 0.1% bovine serum albumin, 0.1% digitonin. Nonspecific binding was determined in the presence of 10 nM ChTX. Incubations were carried out at room temperature until ligand binding equilibrium is achieved at ca. 90 min. At the end of the incubation period, samples were diluted with 4 mL ice-cold 100 mM NaCl, 20 mM Hepes-Tris pH 7.4 and filtered through GF/C glass fiber filters that have been presoaked in 0.5% polyethylenimine. Filters were rinsed twice with 4 mL ice-cold quench solution. Radioactivity associated with filters was determined in a gamma counter. Specific binding data in the presence of each compound (difference between total binding and nonspecific binding) was assessed relative to an untreated control.

[4] = excised inside-out patch, result in words
[5] = application to the intracellular side, excised inside-out patch

T1 sequence (Q28204 whole entry): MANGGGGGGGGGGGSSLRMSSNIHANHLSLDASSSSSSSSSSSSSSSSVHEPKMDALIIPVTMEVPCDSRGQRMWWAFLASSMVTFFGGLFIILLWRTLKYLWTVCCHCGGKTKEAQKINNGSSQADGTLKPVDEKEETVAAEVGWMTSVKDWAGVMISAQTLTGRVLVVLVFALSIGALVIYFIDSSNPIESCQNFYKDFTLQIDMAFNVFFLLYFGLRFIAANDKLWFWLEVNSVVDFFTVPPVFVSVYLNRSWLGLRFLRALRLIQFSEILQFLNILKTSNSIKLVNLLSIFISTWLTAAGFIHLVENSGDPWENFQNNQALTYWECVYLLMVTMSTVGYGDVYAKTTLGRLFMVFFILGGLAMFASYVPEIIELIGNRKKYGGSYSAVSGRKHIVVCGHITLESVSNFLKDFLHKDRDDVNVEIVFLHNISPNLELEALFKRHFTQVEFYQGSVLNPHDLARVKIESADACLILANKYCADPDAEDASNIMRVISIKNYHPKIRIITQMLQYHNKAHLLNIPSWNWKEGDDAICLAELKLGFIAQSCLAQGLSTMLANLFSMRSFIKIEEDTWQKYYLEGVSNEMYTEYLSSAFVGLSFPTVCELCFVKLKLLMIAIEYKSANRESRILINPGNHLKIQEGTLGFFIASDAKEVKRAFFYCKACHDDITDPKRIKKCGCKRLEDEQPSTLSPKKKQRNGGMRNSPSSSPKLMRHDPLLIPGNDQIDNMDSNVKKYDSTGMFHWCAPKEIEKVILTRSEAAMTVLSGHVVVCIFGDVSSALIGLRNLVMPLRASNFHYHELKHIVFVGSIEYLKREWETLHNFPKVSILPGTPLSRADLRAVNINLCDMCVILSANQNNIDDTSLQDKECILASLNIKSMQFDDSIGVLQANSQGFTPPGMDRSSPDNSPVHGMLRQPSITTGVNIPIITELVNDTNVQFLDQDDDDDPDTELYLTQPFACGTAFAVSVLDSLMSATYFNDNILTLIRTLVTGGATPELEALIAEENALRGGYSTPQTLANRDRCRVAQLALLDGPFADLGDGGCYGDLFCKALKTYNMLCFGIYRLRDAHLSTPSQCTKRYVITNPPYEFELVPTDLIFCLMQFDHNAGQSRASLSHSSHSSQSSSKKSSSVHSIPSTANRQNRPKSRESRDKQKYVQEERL
Sequence of large-conductance calcium-activated potassium (maxi-K) channels (Q28204 whole entry): as above
Sequence of large-conductance calcium-activated potassium (maxi-K) channels (Q28067 whole entry partner): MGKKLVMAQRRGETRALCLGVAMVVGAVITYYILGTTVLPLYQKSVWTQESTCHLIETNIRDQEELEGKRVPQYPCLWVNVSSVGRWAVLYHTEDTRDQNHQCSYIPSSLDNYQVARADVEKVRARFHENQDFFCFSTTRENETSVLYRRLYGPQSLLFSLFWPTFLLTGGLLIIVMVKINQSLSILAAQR

Row | Compound | effect on channel open probability [1, 4] | IC50 [3] | inhibition of [^125 I]ChTX binding ([3]; result in words) | effect on channel open probability [1, 5] | other results
1 | CCCCCCCC/C=C\CCCCCCCC(=O)OCC1=CC[C@@]2(C)C[C@H](O)[C@@](O)(C(C)C)[C@@H]2CC1 [Compound A] | clear increases in channel open probability | 360 nM and ~360 nM | concentration-dependent inhibition | – | time over which increase in channel open probability developed ([1]; excised inside-out patch): 5 to 10 min; reversal of increase in channel open probability on washout ([1]; long (20-60 minutes) washout): slowly reversed after long (20-60 minutes) washout; increase in channel open probability ([2]; inside face of the channel): 1.4 fold; effect on channel open probability ([2]; outside face of the channel): did not increase channel open probability
2 | CC1=CC[C@@]2(C)C[C@H](O)[C@@](O)(C(C)C)[C@@H]2CC1 [Compound B, reference compound] | no clear effect on channel open probability | 200 nM | concentration-dependent inhibition | – | –
3 | CCCCC/C=C\C/C=C\CCCCCCCC(=O)O[C@H]1C[C@]2(C)CC=C(C)CC[C@H]2[C@]1(O)C(C)C [Compound C] | – | – | – | small decreases in channel open probability | effect on [^125 I]ChTX binding ([3]; concentrations up to 100 μM, tested at 1, 10 and 100 μM): no effect on binding
4 | CCCCCCCC/C=C\CCCCCCCC(=O)O[C@H]1C[C@]2(C)CC=C(C)CC[C@H]2[C@]1(O)C(C)C [Compound D] | – | – | – | small decreases in channel open probability | remaining activity at 100 µM ([3]; 1.5 h, pH 7.4, read-out: [^125 I]ChTX binding, % of that under control conditions): 37%; inhibition of [^125 I]ChTX binding ([3]; at 100 μM, tested at 1, 10 and 100 μM): significant inhibition of binding
5 | CC(C)[C@@]1(O)[C@@H]2CCC(CO)=CC[C@@]2(C)C[C@@H]1O [Compound E] | – | – | – | no observable effect on channel open probability | effect on toxin binding ([3]; concentrations from 1 nM to 100 μM): did not produce any significant effect on toxin binding
